Assay results from ChEMBL document CHEMBL4842380, “Enhanced Properties of a Benzimidazole Benzylpyrazole Lysine Demethylase Inhibitor: Mechanism-of-Action, Binding Site Analysis, and Activity in Cellular Models of Prostate Cancer” (J Med Chem, 2021).
pIC50: −log10 of the molar value. Activity calls are given as the source filed them. The calls are words filed in the database; no cut-off is given here.

Columns and labels:
[1] = target: T1, Lysine-specific demethylase 4E (Homo sapiens, UniProt B2RXH2); assay: Inhibition of N-terminal His6-tagged KDM4E (1 to 337 residues) (unknown origin) expressed in Escherichia coli BL21 (DE3)-R3 preincubated for 10 mins followed by substrate addition by fluorescence based FDH-coupled assay
T1 sequence (B2RXH2 whole entry): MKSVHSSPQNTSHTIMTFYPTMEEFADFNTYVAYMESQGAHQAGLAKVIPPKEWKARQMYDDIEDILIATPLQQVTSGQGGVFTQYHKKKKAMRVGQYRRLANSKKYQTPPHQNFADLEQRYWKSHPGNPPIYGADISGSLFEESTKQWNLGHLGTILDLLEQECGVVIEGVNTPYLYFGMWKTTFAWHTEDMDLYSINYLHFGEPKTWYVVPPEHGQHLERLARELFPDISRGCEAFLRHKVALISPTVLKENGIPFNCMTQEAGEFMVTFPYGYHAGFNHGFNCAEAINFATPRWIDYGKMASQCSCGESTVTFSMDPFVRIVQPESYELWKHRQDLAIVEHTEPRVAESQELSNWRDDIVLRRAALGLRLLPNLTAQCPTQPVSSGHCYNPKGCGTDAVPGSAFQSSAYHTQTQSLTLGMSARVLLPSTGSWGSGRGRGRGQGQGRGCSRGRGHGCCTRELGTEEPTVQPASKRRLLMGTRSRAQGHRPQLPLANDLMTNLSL

[2] = target: T2, Lysine-specific demethylase 4E (Homo sapiens) (UniProt B2RXH2); assay: Inhibition of N-terminal His6-tagged KDM4E (1 to 337 residues) (unknown origin) expressed in Escherichia coli BL21 (DE3)-R3 at highest concentration preincubated for 10 mins followed by substrate addition by fluorescence based FDH-coupled assay
T2 sequence (whole entry): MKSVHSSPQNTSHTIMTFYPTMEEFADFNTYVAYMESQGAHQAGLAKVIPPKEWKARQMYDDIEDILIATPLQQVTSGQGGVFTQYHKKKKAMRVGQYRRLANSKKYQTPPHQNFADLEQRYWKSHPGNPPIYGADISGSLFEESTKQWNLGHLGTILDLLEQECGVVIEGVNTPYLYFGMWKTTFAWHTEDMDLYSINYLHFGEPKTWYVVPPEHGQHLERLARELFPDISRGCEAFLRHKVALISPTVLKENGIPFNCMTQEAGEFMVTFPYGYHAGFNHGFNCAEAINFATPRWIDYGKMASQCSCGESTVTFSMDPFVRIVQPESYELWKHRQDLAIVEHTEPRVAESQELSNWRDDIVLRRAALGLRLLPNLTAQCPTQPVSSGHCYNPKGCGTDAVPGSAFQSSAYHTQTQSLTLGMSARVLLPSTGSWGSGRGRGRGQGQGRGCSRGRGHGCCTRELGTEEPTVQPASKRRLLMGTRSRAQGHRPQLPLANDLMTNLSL

PC-3 [3] = assay: Cytotoxicity against human PC-3 cells assessed as remaining cell viability after 48 hrs by alamar blue assay; format: functional
[4] = Cytotoxicity against human prostate epithelial cells assessed as growth inhibition after 48 hrs by alamar blue assay; format: cell-based, Prostate cell
[5] = target: T1, Lysine-specific demethylase 4E; assay: Inhibition of N-terminal His6-tagged KDM4E (1 to 337 residues) (unknown origin) expressed in Escherichia coli BL21 (DE3)-R3 preincubated for 10 mins followed by alpha-KG addition after CTH addition for 2 hrs by ELISA
PC-3 [6] = assay: Cytotoxicity against human PC-3 cells assessed as growth inhibition after 48 hrs by alamar blue assay; format: functional
DU-145 [7] = assay: Cytotoxicity against human DU-145 cells assessed as growth inhibition after 48 hrs by alamar blue assay; format: functional
LNCaP = assay: Cytotoxicity against human LnCaP cells assessed as growth inhibition after 48 hrs by alamar blue assay; format: functional
DU-145 [8] = assay: Cytotoxicity against human DU-145 cells assessed as remaining cell viability after 48 hrs by alamar blue assay; format: functional
[9] = Cytotoxicity against human LnCaP cells assessed as remaining cell viability after 48 hrs by alamar blue assay; format: functional, Prostate cell
[10] = Cytotoxicity against human prostate epithelial cells assessed as remaining cell viability after 48 hrs by alamar blue assay; format: functional

Row | Structure (SMILES) | pIC50 [1] | further results
1 | COC(=O)CCc1nn(-c2nc3ccccc3[nH]2)c(O)c1C | 3.97 | 
2 | Cc1cc(C)n(-c2nc3ccccc3[nH]2)n1 |  | inhibition [2]: inactive
3 | Cc1nn(-c2nc3ccccc3n2C)c(O)c1-c1ccccc1 | 4.47 | 
4 | CNC(=O)CCc1c(C)nn(-c2nc3ccccc3[nH]2)c1O | 4.39 | 
5 | Cc1ccc(-c2c(C)nn(-c3nc4ccccc4[nH]3)c2O)cc1 | 4.57 | 
6 | Cc1nn(-c2nc3ccccc3[nH]2)c(N)c1-c1ccccc1 | 3.80 | 
7 | Cc1cc(N)n(-c2nc3ccccc3[nH]2)n1 | 3.70 | 
8 | Cc1nn(-c2ccc(Cl)nn2)c(O)c1-c1ccccc1 | 4.17 | 
9 | CCCCc1nn(-c2nc3ccccc3[nH]2)c(O)c1-c1ccccc1 | 5.22 | 
10 | Cc1nn(-c2nc3ccccc3s2)c(O)c1-c1ccccc1 | 4.46 | 
11 | Cc1nn(-c2nc3ccccc3[nH]2)c(O)c1CCC(=O)O | 3.56 | 
12 | CCc1nn(-c2nc3ccccc3[nH]2)c(O)c1-c1ccccc1 | 5.30 | 
13 | Cc1c(CCC(=O)O)nn(-c2nc3ccccc3[nH]2)c1O | 3.36 | 
14 | COC(=O)Cc1cc(O)n(-c2nc3ccccc3[nH]2)n1 | 4.82 | Activity (PC-3 [3]): 79%; GI50 at 48 h [4]: > 500 µM; pIC50 [5]: 3.24; GI50 (PC-3 [6]): > 1000 µM; GI50 (DU-145 [7]): > 1000 µM; GI50 (LNCaP): 410 µM; Activity (DU-145 [8]): 69%; Activity [9]: 15%; Activity [10]: 12%
15 | Cc1nn(-c2nc3ccccc3[nH]2)c(O)c1CCCN(C)C | 4.15 | 
